Our source for the melting point and inhibition values is patent US7786152B2, “Compound” (priority 2002, dated 2010).

The target in data set [1] is T1, 11 β-HSD type 1 (Rattus norvegicus, UniProt P16232).
T1 construct: Both the kidneys and livers were homogenised on ice in PBS-sucrose buffer; tissue Harlan Olac (rats); host or cells: Wistar rat liver homogenate supernatant
Kind of data set: 11 β-HSD type 1 inhibition, rat liver homogenate, conversion E to F (radiometric TLC). In kind it is biochemical. As to conditions: read-out: % inhibition of 11β HSD1 @ 10 μM, 10 μM, typical sd ± 5%, means n=2. The method, then:
(§1) Enzymes—Rat livers and rat kidneys were obtained from normal Wistar rats (Harlan Olac, Bicester, Oxon, UK). Both the kidneys and livers were homogenised on ice in PBS-sucrose buffer (1 g/10 ml) using an Ultra-Turrax. After the livers and kidneys were homogenised the homogenate was centrifuged for five minutes at 4000 rpm. The supernatant obtained was removed and stored in glass vials at −20° C. The amount of protein per μl of rat liver and kidney cytosol was determined using the Bradford method.
11 β-HSD type 1 is the enzyme responsible for the conversion E to F and this type of enzyme is present in rat liver. The substrate solution used in this assay contained 70,000 cpm/ml ^3H-E in PBS-sucrose and 0.5 μM of unlabelled E and co-factor NADPH (9 mg/10 ml of substrate solution). 1 ml of the substrate solution and the different amounts of rat liver homogenate was added to all tubes.
The amount of rat liver homogenate needed for an assay was determined by incubating the substrate solution with 25, 50, 100 and 150 μl for 30, 60, 90 and 120 minutes at 37° C. in a water bath with the tubes being mechanically shaken. After the incubation 50 μL of recovery solution was added, containing about 8,000 cpm/50 μL of ^14C—F and 50 μg/50 μL of unlabelled F for visualising the spot on the TLC-plate, to correct for the losses made in the next two steps. F was then extracted from the aqueous phase with 4 ml of ether (2×30 sec cycle, vortex mix). The aqueous phase was then frozen using dry-ice and the organic layer was decanted and poured into smaller tubes and evaporated. 6 drops of ether were then added to the small tubes to re-dissolve the residue which was transferred to an aluminium thin layer chromatography plate (TLC-plate). The TLC-plate was developed in a TLC tank under saturated conditions. The solvent system used was chloroform:methanol 9:1 (v/v). The F spots on the TLC-plate were visualised under UV-light and cut out from the TLC-plate (Rf=0.45). The spots from the TLC-plate were then put into scintillation vials and 0.5 ml of methanol was added to all vials to elute the radioactivity from the TLC-plate for 5 minutes. 10 ml of Ecoscint was added to the scintillation vials and they were put into the scintillation counter to count amount of product formed.
(§2) In these assays the influence of different inhibitors on the 11 β-HSD activity both in reductive (type 1) and oxidative (type 2) directions were assessed. In the reductive direction E is the substrate and F the product and visa versa in the case of oxidation. The method described here is for the oxidative direction.
The substrate solution contained about 50,000 cpm/ml ^3H—F in PBS-sucrose and 0.5 μM F. 1 ml of the substrate solution was added to each tube, the inhibitors were also added, at a 10 μM concentration, to each tube except to the “control” and “blank” tubes. 150 μL was added to all tubes except to the blanks, this was done to correct for the amount of ^3H—F spontaneously formed. The tubes were incubated for 60 minutes in a mechanically shaken water bath at 37° C. The amount of kidney liver homogenate and incubation time used resulted from the enzyme- and time-dependency assay. After incubation 50 μL of recovery was added to correct for the losses made in the next steps, containing 5000 cpm/50 μL of ^14C-E and 50 μg/50 μL of unlabelled E (to visualise the spot on the TLC-plate). The aqueous mixture was then extracted with 4 ml of ether (2×30 sec cycle, vortex mix). After freezing the aqueous phase, the ether (upper) layer was decanted into smaller tubes and evaporated at 45° C. until completely dry. The residue was then re-dissolved in 6 drops of ether and transferred to a TLC-plate. The TLC-plate was developed in chloroform:methanol (9:1 v/v) solvent system, the TLC-plate ran for about 90 minutes until the solvent front had moved about 18 cm. The position of the product E was visualised under UV-light and cut out from the TLC-plate and put into scintillation vials. […]

For data set [2], the target named is T2, 11 β-HSD type 2 (Rattus norvegicus, UniProt P50233).
T2 construct: Both the kidneys and livers were homogenised on ice in PBS-sucrose buffer; tissue Harlan Olac (rats); host or cells: Wistar rat kidney homogenate supernatant
T2 sequence (P50233 1-400): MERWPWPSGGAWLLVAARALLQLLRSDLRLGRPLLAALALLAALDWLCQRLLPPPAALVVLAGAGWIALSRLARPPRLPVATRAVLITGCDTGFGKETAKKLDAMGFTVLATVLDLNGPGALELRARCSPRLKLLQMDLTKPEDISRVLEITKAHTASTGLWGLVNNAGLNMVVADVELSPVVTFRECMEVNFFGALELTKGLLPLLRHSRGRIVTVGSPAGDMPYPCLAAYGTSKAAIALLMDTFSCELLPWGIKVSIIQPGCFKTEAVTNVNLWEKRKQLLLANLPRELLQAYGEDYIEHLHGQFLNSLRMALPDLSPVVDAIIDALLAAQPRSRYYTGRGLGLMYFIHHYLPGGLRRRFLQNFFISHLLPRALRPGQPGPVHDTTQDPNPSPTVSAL
In words: 11 β-HSD type 2 inhibition, rat kidney homogenate, conversion F to E (radiometric TLC). In kind it is biochemical. As to conditions: read-out: % inhibition of 11β HSD2 @ 10 μM, typical sd ± 5%, means n=2. The method, then: as §1
The same procedure was used for the 11 β-HSD type 2 assay, the conversion F to E, to determine the amount of rat kidney to be used and the incubation time. Except this time the substrate solution contained ^3H—F and unlabelled F and the recovery contained ^14C-E and unlabelled E and cortisone has a Rf value of 0.65 on the TLC-plate.
as §2
The substrate solution contained about 50,000 cpm/ml ^3H—F in PBS-sucrose and 0.5 μM F. 1 ml of the substrate solution was added to each tube, the inhibitors were also added, at a 10 μM concentration, to each tube except to the “control” and “blank” tubes. 150 μL was added to all tubes except to the blanks, this was done to correct for the amount of ^3H—F spontaneously formed. The tubes were incubated for 60 minutes in a mechanically shaken water bath at 37° C. The amount of kidney liver homogenate and incubation time used resulted from the enzyme- and time-dependency assay. After incubation 50 μL of recovery was added to correct for the losses made in the next steps, containing 5000 cpm/50 μL of ^14C-E and 50 μg/50 μL of unlabelled E (to visualise the spot on the TLC-plate). The aqueous mixture was then extracted with 4 ml of ether (2×30 sec cycle, vortex mix). After freezing the aqueous phase, the ether (upper) layer was decanted into smaller tubes and evaporated at 45° C. until completely dry. The residue was then re-dissolved in 6 drops of ether and transferred to a TLC-plate. The TLC-plate was developed in chloroform:methanol (9:1 v/v) solvent system, the TLC-plate ran for about 90 minutes until the solvent front had moved about 18 cm. The position of the product E was visualised under UV-light and cut out from the TLC-plate and put into scintillation vials. Radioactivity was eluted over 5 minutes with 0.5 ml methanol. 0.5 ml of PBS-sucrose and 10 ml of Ecoscint were then added and vortex mixed before counting in the scintillation counter. Before counting the samples, two total activity vials were prepared. These contained 0.5 ml of the substrate solution, 50 μL of the recovery, 0.5 ml of methanol and 10 ml of Ecoscint. These two total activity vials were needed to determine the amount of ^14C-E and ^3H—F added in the beginning to make the calculations.
To look at the percentage of inhibition four different concentrations, 1, 5, 10 and 20 μM, were used. The method for both the rat liver, type 1 the reductive, and rat kidney, type 2 the oxidative, stay the same throughout the entire experiment.
In this experiment the amount of rat liver homogenate and rat kidney homogenate added to each tube and the incubation time was determined. […] After drawing the graphs the optimal amount of rat liver cytosol and rat kidney cytosol and both their incubation times were selected. One important rule when selecting both variables, to select an amount of rat liver and rat kidney and incubation time on a linear part of the graph. This is done to avoid fluctuations in enzyme activity. The amount of rat liver cytosol selected was 25 μL and 90 minutes of incubation time, the amount of rat kidney cytosol selected was 150 μL and 60 minutes of incubation time. […]

T1 sequence (P16232 whole entry): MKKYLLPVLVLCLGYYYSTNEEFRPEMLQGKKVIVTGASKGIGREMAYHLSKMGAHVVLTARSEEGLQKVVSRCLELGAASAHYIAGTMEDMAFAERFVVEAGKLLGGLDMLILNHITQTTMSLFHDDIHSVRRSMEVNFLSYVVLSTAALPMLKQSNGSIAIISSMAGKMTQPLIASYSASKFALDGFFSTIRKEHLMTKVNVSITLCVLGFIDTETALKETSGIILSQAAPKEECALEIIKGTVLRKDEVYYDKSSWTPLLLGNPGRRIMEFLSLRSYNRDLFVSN

`Cc1c(Cl)cccc1S(=O)(=O)Nc1ccc2c(c1)nc(C)n2-c1ccccc1` had a melting point of 254 to 256 °C. `Cc1c(Cl)cccc1S(=O)(=O)Nc1ccc2nc(C)n(CCO)c2c1` showed a melting point of 213 to 214.5 °C. Still for that read-out and setting: as for `Cc1c(Cl)cccc1S(=O)(=O)Nc1ccc2c(c1)nc(C)n2CCO`, the figure is 245 to 247 °C; as for `Cc1c(Cl)cccc1S(=O)(=O)Nc1ccc2nc(C)n(C)c2c1`, 265 to 266 °C.

With `Cc1nc2cc(NS(=O)(=O)c3c(C)c(C)cc(C)c3C)ccc2s1` [compound 706], the inhibition at 10 µM in data set [1] was found to be 29%; in data set [2] it was 7%. Turning to `COc1ccc(S(=O)(=O)Nc2ccc3sc(C)nc3c2)cc1OC` [compound 707], the inhibition at 10 µM in data set [1] came out at 21%; in data set [2], 11%. Taken in the same sequence, the figures for `CC(=O)Nc1ccc(S(=O)(=O)Nc2ccc3sc(C)nc3c2)cc1` [compound 711] were 37% and 6%. Turning to `Cc1nc2cc(NS(=O)(=O)c3c(F)c(F)c(F)c(F)c3F)ccc2s1` [compound 712], the inhibition at 10 µM was 24% in data set [1] and 3% in data set [2]. Turning to `Cc1nc2cc(NS(=O)(=O)c3c(C)c(C)c4c(c3C)CCC(C)(C)O4)ccc2s1` [compound 713], the inhibition at 10 µM in data set [1] was determined as 26%; in data set [2] it was 3%. `CC(=O)c1ccccc1S(=O)(=O)N(c1ccc2sc(C)nc2c1)S(=O)(=O)c1ccccc1C(C)=O` [compound 730]: the results for the inhibition at 10 µM in data set [1] and in data set [2] were 32% and 9%, respectively. For `Cc1nc2cc(N(S(=O)(=O)c3ccccc3C#N)S(=O)(=O)c3ccccc3C#N)ccc2s1` [compound 731], the inhibition at 10 µM in data set [1] stood at 45%; in data set [2], 12%. Turning to `Cc1c(Cl)cccc1S(=O)(=O)Nc1ccc2ncsc2c1` [compound 750], the inhibition at 10 µM in data set [1] is 4%; in data set [2] it was 10%. Consider `CCOC(=O)CSc1nc2ccc(NS(=O)(=O)c3cccc(Cl)c3C)cc2s1` [compound 752], for which the inhibition at 10 µM in data set [1] came to 5%; in data set [2], 1%.

Take `Cc1c(Cl)cccc1S(=O)(=O)Nc1ccc2[nH]c(=O)sc2c1` [compound 753]: the inhibition at 10 µM in data set [1] worked out at 8%; in data set [2] it was 2%. In the case of `COCCSc1nc2ccc(NS(=O)(=O)c3cccc(Cl)c3C)cc2s1` [compound 754], the inhibition at 10 µM is 20% in data set [1] and 6% in data set [2]. For `CCN(CC)C(=O)CSc1nc2ccc(NS(=O)(=O)c3cccc(Cl)c3C)cc2s1` [compound 755], the inhibition at 10 µM in data set [1] came out at 21%; in data set [2], 8%.
